Measurements published in EP0190597A2, “Retro-inverso analogs of the bradykinin potentiating peptide bpp 5a” (SCLAVO S.p.A., priority 1985, dated 1986).

Biological target: angiotensin converting enzyme
Assay: Inhibition of angiotensin converting enzyme (method of Cushman and Cheung)
Type: biochemical, rabbit
Conditions: in vitro; ratio of IC50 versus BPP5a or Glp-Lys-Phe-Ala-Pro-OH
From the text: In particular, comparative experiments carried out […] in order to evaluate the ACE inhibitory activity of the compounds of the present invention gave the results reported in following table I (IC50 represents the concentration of the test compound, in µM, which inhibits the angiotensin converting enzyme by 50%. The enzyme employed in this test has been isolated from rabbit lungs according to the method by Cushman and Cheung described in Biochem. Pharmacol. 2Q, 1637, (1971)).

Substance: Glp--Lys-gPhe-mAla-Pro-OH
- IC50 times higher than that of the natural product (BPPSa) or the corresponding uninverted peptide Glp-Lys-Phe-Ala-Pro-OH: more than 1000 times
